Assay results: patent publication US20230192661A1, “1, 4, 5, 6-TETRAHYDROPYRIMIDINE-2-AMINE DERIVATIVE” (UBE Corporation, priority 2020, published 2023)

What was measured:
[1] = Transcellular transport test using Caco2 cell; format: in vitro ADME; conditions: human, Caco-2; Caco2 monolayer, A-to-B, 10 μM compound, pH 7.4, 90 minutes
Experimental: Caco2 cells (purchased from ATCC) were cultured in DMEM medium (Thermo Fisher Scientific, Inc., 11965) containing 10% FBS (Thermo Fisher Scientific, Inc., 10082) and 1% penicillin/streptomycin/amphotericin B (Thermo Fisher Scientific, Inc., 15240). A transcellular transport test was carried out in accordance with MultiScreen Caco2 Drug Transport Assembly in a 96-well system (Application Note AN1727EN, MultiScreen Caco-2 Assay System, Merck) by partially modifying it. The Caco2 cells were inoculated at a cell density of 4×10^4 cells/well onto a micropore polycarbonate insert of a 96-well plate (Merck, Millcell-96 culture insert plate 0.4 μm pore size, well membrane area=0.11 cm^2, PSHT004S5) and cultured for 20 to 22 days, and the resulting monolayer was used in the transcellular transport test. The medium of the inoculated cells was replaced with a fresh one every 3 to 4 days.
Apical-to-basolateral (A-to-B) transport in the Caco2 cell monolayer membrane was performed by using HBSS (Thermo Fisher Scientific, Inc., 14025) medium (pH=7.4) containing 20 mM HEPES (Thermo Fisher Scientific, Inc., 15630), and adding HEPES-containing HBSS medium containing 10 μM compound (a 10 mM solution of the compound in DMSO was added at a 1000-fold dilution; final DMSO concentration: 0.1%) at 75 μL/well to the apical side and HEPES-containing HBSS medium supplemented with no compound at 250 μL/well to the basolateral side, followed by culture at 37° C. for 90 minutes. After culture, a 100 μL aliquot was collected from the basolateral side, and the concentration of a permeated compound was measured by LC-MS/MS under measurement conditions mentioned later. Papp (apparent permeability; cm/sec) was calculated from the determined concentration. Papp was determined according to the expression given below by calculating the slope (dA/dt; nmol/sec) of a straight line drawn between two points 0 minutes and zero amount of the compound in a graph plotted with an assay time (90 min) on the abscissa against the amount of the compound in the solution on the permeated side on the ordinate. As for an assay concentration, the concentration in the compound in the HEPES-containing HBSS medium containing the added compound was measured by UV-HPLC under measurement conditions mentioned later.
Papp (cm/sec)=C0×S×(dA/dt)
C0: assay concentration, S: plate membrane area=0.11 cm^2

[2] = tested on: Human hepatic stellate cells; assay: Active human hepatic stellate cell dedifferentiation test (decrease in ACTA2 mRNA expression); format: cell-based; conditions: 3 days differentiation then 2 days with compound, read-out: IC50 (rate of decrease in ACTA2 mRNA expression)
Experimental: Human hepatic stellate cells (manufactured by ScienCell Research Laboratories, Inc., 5300) were suspended in DMEM containing 10% FBS and […] penicillin/streptomycin/amphotericin B to prepare a cell suspension of 0.5×10^5 cells/mL, which was regarded as cells at the start of differentiation. The cells at the start of differentiation were dispensed at 1 mL/well to a 12-well plate and cultured, for differentiation, for 3 days in a 5% CO2 incubator (37° C.).
The culture solution in each well was removed, and DMEM containing 10% FBS and 1% penicillin/streptomycin/amphotericin B supplemented with a test compound dissolved in DMSO (final DMSO concentration: 0.1%) was added at 1 mL/well. The resultant was further cultured for 2 days in a 5% CO2 incubator (37° C.). In Test Example 4, the same reagents as in Test Example 1 were used unless otherwise specified.
RNA in the cultured cells was extracted using NucleoSpin® RNA (manufactured by Takara Bio Inc., U0955C), and cDNA was further synthesized from the extracted RNA using Prime Script™ RT reagent Kit with gDNA Eraser (manufactured by Takara Bio Inc., RR047A). Real time PCR was performed using the synthesized cDNA, various primers and TB Green® Premix Ex Taq™ II (manufactured by Takara Bio Inc., RR820A) and using PCR Thermal Cycler Dice Real Time (manufactured by Takara Bio Inc., System Code TP910, Model Code TP900). The primers used were actin alpha 2, smooth muscle (ACTA2) primer (manufactured by Takara Bio Inc., HA136273) and glyceraldehyde-3-phosphate dehydrogenase (GAPDH) primer (manufactured by Takara Bio Inc., HA067812).
The amplification curve of PCR was analyzed by the comparative Ct method. The expression level of ACTA2 mRNA was corrected with the expression level of GAPDH mRNA. An ACTA2 mRNA expression level when DMSO was added instead of the test compound was defined as 100%, and an ACTA2 mRNA expression level in the cells at the start of differentiation was defined as 0%. The rate of decrease in ACTA2 mRNA expression by the test compound was calculated according to the following expression.
Rate of decrease in ACTA2 mRNA expression (%)=[1−{(ACTA2 mRNA expression level in the case of adding the test compound)−(ACTA2 mRNA expression level in the cells at the start of differentiation)}/{(ACTA2 mRNA expression level in the case of adding DMSO)−(ACTA2 mRNA expression level in the cells at the start of differentiation)}]×100
An IC50 value was calculated from the rate of decrease in ACTA2 mRNA expression by the test compound. A: IC50<10 nM, B: 10 nM≤IC50<50 nM, C: 50 nM≤IC50<100 nM, or D: IC50≥100 nM.

`O=C(O)C[C@H](NC(=O)CNC(=O)c1cc(NC2=NCC(F)CN2)c2cn[nH]c2c1)c1cc(Cl)cc(C(F)(F)F)c1` (stereo partly drawn) [Example 1-(b), (3S)-3-(3-chloro-5-(trifluoromethyl)phenyl)-3-(2-(4-((5-fluoro-1,4,5,6-tetrahydropyrimidin-2-yl)amino)-1H-indazole-6-carboxamido)acetamido)propanoic acid] gave a Papp A→B at 90 min, 10 μM [1] greater than 1 ×10⁻⁶ cm/s and an IC50 [2] of less than 10 nM.
Work on `O=C(O)C[C@H](NC(=O)CNC(=O)c1cc(NC2=NCC(F)CN2)c2cn[nH]c2c1)c1cc(Br)cc(C(F)(F)F)c1` (stereo partly drawn) [Example 2-(b), (3S)-3-(3-bromo-5-(trifluoromethyl)phenyl)-3-(2-(4-((5-fluoro-1,4,5,6-tetrahydropyrimidin-2-yl)amino)-1H-indazole-6-carboxamido)acetamido)propanoic acid] yielded a Papp A→B at 90 min, 10 μM [1] of 0.5 to 1 ×10⁻⁶ cm/s and an IC50 [2] of 10 to 50 nM.
In the case of `O=C(O)C[C@H](NC(=O)CNC(=O)c1cc(NC2=NCC(F)CN2)c2cn[nH]c2c1)c1cc(I)cc(C(F)(F)F)c1` (stereo partly drawn) [Example 3-(b), (3S)-3-(2-(4-((5-fluoro-1,4,5,6-tetrahydropyrimidin-2-yl)amino)-1H-indazole-6-carboxamido)acetamido)-3-(3-iodo-5-(trifluoromethyl)phenyl)propanoic acid], the Papp A→B at 90 min, 10 μM [1] is reported as greater than 1 ×10⁻⁶ cm/s and the IC50 [2] is reported as 10 to 50 nM.
In the case of `Cc1cc([C@H](CC(=O)O)NC(=O)CNC(=O)c2cc(NC3=NCC(F)CN3)c3cn[nH]c3c2)cc(C(F)(F)F)c1` (stereo partly drawn) [Example 4-(b), (3S)-3-(2-(4-((5-fluoro-1,4,5,6-tetrahydropyrimidin-2-yl)amino)-1H-indazole-6-carboxamido)acetamido)-3-(3-methyl-5-(trifluoromethyl)phenyl)propanoic acid], the Papp A→B at 90 min, 10 μM [1] is reported as greater than 1 ×10⁻⁶ cm/s and the IC50 [2] is reported as 10 to 50 nM.
Work on `COc1cc([C@H](CC(=O)O)NC(=O)CNC(=O)c2cc(NC3=NCC(F)CN3)c3cn[nH]c3c2)cc(C(F)(F)F)c1` (stereo partly drawn) [Example 5-(b), (3S)-3-(2-(4-((5-fluoro-1,4,5,6-tetrahydropyrimidin-2-yl)amino)-1H-indazole-6-carboxamido)acetamido)-3-(3-methoxy-5-(trifluoromethyl)phenyl)propanoic acid] yielded a Papp A→B at 90 min, 10 μM [1] of 0.5 to 1 ×10⁻⁶ cm/s and an IC50 [2] of less than 10 nM.
`O=C(O)C[C@H](NC(=O)CNC(=O)c1cc(NC2=NCC(F)CN2)c2cn[nH]c2c1)c1cc(F)cc(C(F)(F)F)c1` (stereo partly drawn) [Example 6-(b), (3S)-3-(2-(4-((5-fluoro-1,4,5,6-tetrahydropyrimidin-2-yl)amino)-1H-indazole-6-carboxamido)acetamido)-3-(3-fluoro-5-(trifluoromethyl)phenyl)propanoic acid] showed a Papp A→B at 90 min, 10 μM [1] greater than 1 ×10⁻⁶ cm/s and an IC50 [2] of 10 to 50 nM.
In the case of `O=C(O)C[C@H](NC(=O)CNC(=O)c1cc(NC2=NCC(F)CN2)c2cn[nH]c2c1)c1cc(Cl)ccc1F` (stereo partly drawn) [Example 22-(b), (3S)-3-(5-chloro-2-fluorophenyl)-3-(2-(4-((5-fluoro-1,4,5,6-tetrahydropyrimidin-2-yl)amino)-1H-indazole-6-carboxamido)acetamido)propanoic acid], the Papp A→B at 90 min, 10 μM [1] is reported as greater than 1 ×10⁻⁶ cm/s.
For `O=C(O)C[C@H](NC(=O)CNC(=O)c1cc(NC2=NCC(F)CN2)c2cn[nH]c2c1)c1cc(Br)ccc1F` (stereo partly drawn) [Example 23-(b), (3S)-3-(5-bromo-2-fluorophenyl)-3-(2-(4-((5-fluoro-1,4,5,6-tetrahydropyrimidin-2-yl)amino)-1H-indazole-6-carboxamido)acetamido)propanoic acid], the Papp A→B at 90 min, 10 μM [1] was greater than 1 ×10⁻⁶ cm/s.
`O=C(O)C[C@H](NC(=O)CNC(=O)c1cc(NC2=NCC(F)CN2)c2cn[nH]c2c1)c1ccc(F)c(OC(F)F)c1` (stereo partly drawn) [Example 27-(b), (3S)-3-(3-(difluoromethoxy)-4-fluorophenyl)-3-(2-(4-((5-fluoro-1,4,5,6-tetrahydropyrimidin-2-yl)amino)-1H-indazole-6-carboxamido)acetamido)propanoic acid] showed a Papp A→B at 90 min, 10 μM [1] greater than 1 ×10⁻⁶ cm/s.
For `O=C(O)C[C@H](NC(=O)CNC(=O)c1cc(NC2=NCC(F)CN2)c2cn[nH]c2c1)c1cc(OC(F)F)cc(-n2cccn2)c1` (stereo partly drawn) [Example 29-(b), (3S)-3-(3-(difluoromethoxy)-5-(1H-pyrazol-1-yl)phenyl)-3-(2-(4-((5-fluoro-1,4,5,6-tetrahydropyrimidin-2-yl)amino)-1H-indazole-6-carboxamido)acetamido)propanoic acid], the Papp A→B at 90 min, 10 μM [1] was 0.1 to 0.5 ×10⁻⁶ cm/s.
Compound `Cc1cc(C)n(-c2cccc([C@H](CC(=O)O)NC(=O)CNC(=O)c3cc(NC4=NCC(F)CN4)c4cn[nH]c4c3)c2)n1` (stereo partly drawn) [Example 44-(b), (3S)-3-(3-(3,5-dimethyl-1H-pyrazol-1-yl)phenyl)-3-(2-(4-((5-fluoro-1,4,5,6-tetrahydropyrimidin-2-yl)amino)-1H-indazole-6-carboxamido)acetamido)propanoic acid] has a Papp A→B at 90 min, 10 μM [1] of 0.5 to 1 ×10⁻⁶ cm/s.
Work on `O=C(O)C[C@H](NC(=O)CNC(=O)c1cc(NC2=NCC(F)CN2)c2cn[nH]c2c1)c1cccc(N2CCOCC2)c1` (stereo partly drawn) [Example 45-(b), (3S)-3-(2-(4-((5-fluoro-1,4,5,6-tetrahydropyrimidin-2-yl)amino)-1H-indazole-6-carboxamido)acetamido)-3-(3-morpholinophenyl)propanoic acid] yielded a Papp A→B at 90 min, 10 μM [1] of 0.5 to 1 ×10⁻⁶ cm/s.
`O=C(O)C[C@H](NC(=O)CNC(=O)c1cc(NC2=NCC(F)CN2)c2cn[nH]c2c1)c1ccc(OC(F)F)cc1` (stereo partly drawn) [Example 46-(b), (3S)-3-(4-(difluoromethoxy)phenyl)-3-(2-(4-((5-fluoro-1,4,5,6-tetrahydropyrimidin-2-yl)amino)-1H-indazole-6-carboxamido)acetamido)propanoic acid] showed a Papp A→B at 90 min, 10 μM [1] greater than 1 ×10⁻⁶ cm/s.
Work on `O=C(O)C[C@H](NC(=O)CNC(=O)c1cc(NC2=NCC(F)CN2)c2cn[nH]c2c1)c1ccc(C(F)(F)F)cc1` (stereo partly drawn) [Example 47-(b), (3S)-3-(2-(4-((5-fluoro-1,4,5,6-tetrahydropyrimidin-2-yl)amino)-1H-indazole-6-carboxamido)acetamido)-3-(4-(trifluoromethyl)phenyl)propanoic acid] yielded a Papp A→B at 90 min, 10 μM [1] greater than 1 ×10⁻⁶ cm/s.
Work on `O=C(O)C[C@H](NC(=O)CNC(=O)c1cc(NC2=NCC(O)CN2)c2cn[nH]c2c1)c1cc(Cl)cc(C(F)(F)F)c1` (stereo partly drawn) [Example 50-(b), (3S)-3-(3-chloro-5-(trifluoromethyl)phenyl)-3-(2-(4-((5-hydroxy-1,4,5,6-tetrahydropyrimidin-2-yl)amino)-1H-indazole-6-carboxamido)acetamido)propanoic acid] yielded a Papp A→B at 90 min, 10 μM [1] greater than 1 ×10⁻⁶ cm/s.
Work on `O=C(O)C[C@H](NC(=O)CNC(=O)c1cc(NC2=NCCCN2)c2cn[nH]c2c1)c1cc(Cl)cc(C(F)(F)F)c1` [Example 51-(b), (S)-3-(3-chloro-5-(trifluoromethyl)phenyl)-3-(2-(4-((1,4,5,6-tetrahydropyrimidin-2-yl)amino)-1H-indazole-6-carboxamido)acetamido)propanoic acid] yielded a Papp A→B at 90 min, 10 μM [1] greater than 1 ×10⁻⁶ cm/s.
